PubChem BioAssay (NCI)
“And” between values parts separate entries of the source, which are not always exact repeats. Equal values may be shown once.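 Test compounds were applied to cells in 96-well plates for 48 hours at 5 doses. The concentration for 50% growth inhibition is given as GI50. TGI denotes the concentration required for complete inhibition of growth.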

How the values were obtained:
Test in all cases: NCI tumour cell line growth inhibition, 48 h
OVCAR-3 ovarian = test system: OVCAR-3 ovarian
SNB-75 CNS = test system: SNB-75 CNS
KM12 colon = test system: KM12 colon
CAKI-1 renal = test system: CAKI-1 renal
OVCAR-8 ovarian = test system: OVCAR-8 ovarian
SNB-78 CNS = test system: SNB-78 CNS
SK-MEL-5 melanoma = test system: SK-MEL-5 melanoma
DMS 273 small cell lung = test system: DMS 273 small cell lung
MDA-MB-231 breast = test system: MDA-MB-231 breast
DU-145 prostate = test system: DU-145 prostate

Row | Structure (SMILES) | TGI (OVCAR-3 ovarian) | TGI (SNB-75 CNS) | TGI (KM12 colon) | TGI (CAKI-1 renal) | TGI (OVCAR-8 ovarian) | TGI (SNB-78 CNS) | TGI (SK-MEL-5 melanoma) | TGI (DMS 273 small cell lung) | TGI (MDA-MB-231 breast) | GI50 (KM12 colon) | GI50 (OVCAR-8 ovarian) | TGI (DU-145 prostate) | GI50 (OVCAR-3 ovarian) | GI50 (SNB-75 CNS) | GI50 (CAKI-1 renal) | GI50 (SK-MEL-5 melanoma) | GI50 (DMS 273 small cell lung) | GI50 (MDA-MB-231 breast) | GI50 (SNB-78 CNS) | GI50 (DU-145 prostate)
1 | CSc1nc(NC2OCC(OC(C)=O)C(OC(C)=O)C2OC(C)=O)c(N=C(C)C(C)=O)c(=O)n1C (stereo unspecified) | > 100 µM | > 100 µM | > 100 µM | > 100 µM | > 100 µM | > 100 µM | > 100 µM | > 100 µM |  |  |  |  |  |  |  |  |  |  |  | 
2 | O=C(Cc1nc2ccccc2s1)Nc1ccc(Cl)cc1 | > 100 µM | > 100 µM | > 100 µM | > 100 µM | > 100 µM | > 100 µM | > 100 µM | > 100 µM |  |  |  |  |  |  |  |  |  |  |  | 
3 | C[N+](C)(C)CC(=O)N/N=C(\CCC(=O)NCCc1ccccc1)CC(=O)c1ccccc1 | > 100 µM |  | > 100 µM | > 100 µM | > 100 µM | > 100 µM | > 100 µM | > 100 µM |  |  |  |  |  |  |  |  |  |  |  | 
4 | Nc1nc(Cl)cc(NCCCCCNc2cc(Cl)nc(N)n2)n1 | > 100 µM | > 100 µM | > 100 µM | > 100 µM | > 100 µM | 88 µM | > 100 µM | > 100 µM |  |  |  |  |  |  |  |  |  |  |  | 
5 | O=C(NCCO)c1cc2c(cn1)[nH]c1ccccc12 | > 100 µM | > 100 µM | > 100 µM | > 100 µM | > 100 µM | > 100 µM | > 100 µM | > 100 µM |  |  |  |  |  |  |  |  |  |  |  | 
6 | C=CC(=O)N1C/C(=C\c2ccccc2)C(=O)/C(=C/c2ccccc2)C1 | 4.47 µM | 10 µM | 2.4 µM | 6.88 µM | 4.94 µM |  | 3.12 µM | 2.13 µM | 4.55 µM | 443 nM | 800 nM | 15.9 µM |  |  |  |  |  |  |  | 
7 | CC1=C(C(=O)Nc2ccccc2)C(c2ccc([N+](=O)[O-])cc2)C(C(=O)Nc2ccccc2)=C(C)N1 | > 100 µM | 82.1 µM | 34.8 µM |  | 35.8 µM | > 100 µM | 61.7 µM | 72.4 µM |  |  |  |  |  |  |  |  |  |  |  | 
8 | CC(C)N(C(=O)C1(C)CC1)C(C)C | > 100 µM | > 100 µM | > 100 µM | > 100 µM | > 100 µM | > 100 µM | > 100 µM | > 100 µM |  |  |  |  |  |  |  |  |  |  |  | 
9 | O=C1Nc2cc(Cl)ccc2N=CC1NC(=O)C(c1ccccc1)c1ccccc1Cl (stereo unspecified) | > 100 µM | > 100 µM | > 100 µM | > 100 µM | > 100 µM | > 100 µM | > 100 µM | > 100 µM |  |  |  |  |  |  |  |  |  |  |  | 
10 | Cc1nnc(N=Nc2c(O)[nH]c3c(Cl)cc(Cl)cc23)n1N | > 100 µM |  | > 100 µM | > 100 µM | > 100 µM | > 100 µM |  |  |  |  |  |  |  |  |  |  |  |  |  | 
11 | C#Cc1c(C)c(/C=C/C(C)=C/C=C/C(C)=C/C(=O)OC)n(C)c1C | > 100 µM | > 100 µM | > 100 µM | > 100 µM | > 100 µM | > 100 µM |  |  |  |  |  |  |  |  |  |  |  |  |  | 
12 | COc1ccc(/C=C/C(=O)C(C)(C)CN2CCCCC2)cc1 | 34.5 µM | 47.1 µM | 55.7 µM |  | 37.7 µM | 69 µM | 35.5 µM | 41.6 µM |  |  |  |  |  |  |  |  |  |  |  | 
13 | COc1cccc(NC(=O)C(C)(C)C)c1C=O | > 100 µM | > 100 µM | > 100 µM | > 100 µM | > 100 µM | > 100 µM | > 100 µM |  |  |  |  |  |  |  |  |  |  |  |  | 
14 | CN(C)c1ncnc2c1Cc1ccccc1C(=O)N2C | > 100 µM | > 100 µM | > 100 µM | > 100 µM | > 100 µM | > 100 µM | > 100 µM | > 100 µM |  |  |  |  |  |  |  |  |  |  |  | 
15 | C=CCCOC(=O)CO[N+](=O)[O-] | > 100 µM | > 100 µM | > 100 µM | > 100 µM | > 100 µM |  |  | > 100 µM |  |  |  |  |  |  |  |  |  |  |  | 
16 | N.N.N.N.O=NN1CCCCCC1(P(=O)([O-])[O-])P(=O)([O-])[O-].[Pt+4].[Pt+4] | > 100 µM | > 100 µM | > 100 µM | > 100 µM | > 100 µM |  | > 100 µM | > 100 µM |  | > 100000 nM | > 100000 nM |  | > 100000 nM | > 100 µM | > 100000 nM | > 100000 nM | > 100000 nM |  |  | 

Row | Structure (SMILES) | TGI (OVCAR-3 ovarian) | TGI (SNB-75 CNS) | TGI (KM12 colon) | TGI (CAKI-1 renal) | TGI (OVCAR-8 ovarian) | TGI (SNB-78 CNS) | TGI (SK-MEL-5 melanoma) | TGI (DMS 273 small cell lung) | TGI (MDA-MB-231 breast) | GI50 (KM12 colon) | GI50 (OVCAR-8 ovarian) | TGI (DU-145 prostate) | GI50 (OVCAR-3 ovarian) | GI50 (SNB-75 CNS) | GI50 (CAKI-1 renal) | GI50 (SK-MEL-5 melanoma) | GI50 (DMS 273 small cell lung) | GI50 (MDA-MB-231 breast) | GI50 (SNB-78 CNS) | GI50 (DU-145 prostate)
17 | Cc1ccc(-n2c3nc(=O)n(C)c(=O)c-3nc3ccccc32)cc1 | 17.6 µM | 39.7 µM | > 100 µM | 70.7 µM | 51.8 µM | > 100 µM | 26.2 µM | 20.1 µM |  |  |  |  |  |  |  |  |  |  |  | 
18 | CC1CN(c2ccc(Cl)cc2)CC(C)(C)OC(=O)O1 (stereo unspecified) | > 100 µM | > 100 µM | > 100 µM | > 100 µM | > 100 µM | > 100 µM | > 100 µM | > 100 µM |  |  |  |  |  |  |  |  |  |  |  | 
19 | COCc1c(CO)cnc(C)c1OC1OC(CO)C(O)C(O)C1O (stereo unspecified) | > 100 µM | > 100 µM | > 100 µM | > 100 µM | > 100 µM |  | > 100 µM | > 100 µM |  |  |  |  |  |  |  |  |  |  |  | 
20 | CCN(CC)CC.CCOc1ccc(NC(=O)N=C=[N-])cc1.[CH-]1CCCCC1.[CH-]1CCCCC1.[CH-]1CCCCC1.[Cl-].[Sn+4] | 0.038 µM | 0.108 µM | 0.0429 µM | 0.0969 µM | 0.123 µM | 0.373 µM | 0.0941 µM | 0.0482 µM | 0.25 µM | 16.1 nM | 42.4 nM | 0.19 µM | 17.1 nM | 0.0244 µM | 28.2 nM | 30.3 nM | 18.5 nM | 0.103 µM | 47.2 nM | 61.7 nM
21 | COc1ccc2c(c1O)C(=O)C(CCC(=O)O)CC2 (stereo unspecified) | > 100 µM | > 100 µM |  | > 100 µM | > 100 µM | > 100 µM | > 100 µM | > 100 µM |  |  |  |  |  |  |  |  |  |  |  | 
22 | COc1cc(OC)c2ssc3c(OC)cc(OC)c4ssc1c2-c43 | > 100 µM | > 100 µM | > 100 µM | > 100 µM | > 100 µM | > 100 µM | > 100 µM | > 100 µM |  |  |  |  |  |  |  |  |  |  |  | 
23 | C[C@H](N)C(=O)N[C@@H]1[C@H]2C(=C(O)C[C@@H](O)[C@@H]2O)C(=O)O[C@]1(C)C(Cl)Cl | 9.36 µM and 1.94 µM | 3.85 µM and 1.07 µM | 1.99 µM and 1.52 µM |  | 3.12 µM and 1.18 µM | 2.1 µM | 0.994 µM and 0.471 µM | 1.57 µM and 1.44 µM | 1.14 µM | 255 nM | 255 nM |  | 454 nM | 0.226 µM | 430 nM | 228 nM | 279 nM |  |  | 372 nM
24 | COc1cc(Br)c(CC2(C#N)c3ccccc3C3C(N2C(=O)c2ccccc2)C3(Cl)Cl)cc1OC (stereo unspecified) | > 65.5 µM | > 65.5 µM | > 65.5 µM |  | > 65.5 µM | > 65.5 µM | > 65.5 µM | > 65.5 µM |  |  |  |  |  |  |  |  |  |  |  | 
25 | CCOC(=O)Cc1nc2ccccc2s1 | > 10 µM | 94.1 µM | > 10 µM | 48.1 µM | 32.8 µM | 33 µM | 48.5 µM | 55.4 µM |  |  |  |  |  |  |  |  |  |  |  | 
26 | CC(/C=C/C(=O)c1sc(-n2nc(-c3ccccc3)cc2-c2ccccc2)nc1C)=C\c1ccccc1 | > 100 µM |  | > 100 µM | > 100 µM | > 100 µM |  | > 100 µM | > 100 µM |  |  |  |  |  | 28.4 µM |  |  | > 100000 nM |  |  | 
27 | CC1=C(C(=O)Nc2ccccc2C)C(c2ccc(C3C(C(=O)Nc4ccccc4C)=C(C)NC(C)=C3C(=O)Nc3ccccc3C)cc2)C(C(=O)Nc2ccccc2C)=C(C)N1 | 18.5 µM | 30.9 µM | 4.75 µM | 22.7 µM | 8.57 µM | 16.7 µM | 24.6 µM | 11.4 µM | 15.2 µM |  |  | 32.1 µM |  |  |  |  |  |  |  | 
28 | O=C(O)C1=C(C(=O)Nc2ccccc2)C2C=CC1C2 (stereo unspecified) | > 100 µM | > 100 µM | > 100 µM |  | > 100 µM | > 100 µM | > 100 µM | > 100 µM |  |  |  |  |  |  |  |  |  |  |  | 
29 | COc1cccc(Cn2c(-c3nonc3N)nc3ccccc32)c1 | 3.62 µM | 2.02 µM | > 100 µM | > 100 µM | > 100 µM |  | > 70.5 µM |  | > 100 µM | 515 nM | 610 nM | > 100 µM | 354 nM | 0.225 µM | 404 nM | 375 nM |  | 0.879 µM |  | 591 nM
30 | COc1ccccc1-c1cc(/C=C2\C(=O)Nc3ncc(Br)cc32)cc(Br)c1O | > 25 µM | > 25 µM | > 25 µM | > 25 µM | > 25 µM |  | > 25 µM |  | > 25 µM | 4430 nM | > 19100 nM | > 25 µM | 9510 nM | 6.03 µM | 10100 nM | 11400 nM |  | 8.52 µM |  | 17600 nM
31 | Fc1ccc(-c2nn3c(CNc4ccccc4)nnc3s2)cc1 | 49.1 µM | > 100 µM | > 100 µM | 49.2 µM | > 100 µM |  | 36.7 µM |  | > 100 µM | 14900 nM | 34700 nM | > 100 µM | 12200 nM | 52.2 µM | 19400 nM | 17500 nM |  | 27.9 µM |  | 56600 nM
32 | Sc1ccc2ccccc2c1CNCc1ccccc1 | 31.4 µM | 44.2 µM | 30.8 µM | 43.8 µM | 65.8 µM |  | 25.3 µM |  | 43.9 µM |  |  | 69.3 µM |  |  |  |  |  |  |  | 
